According to patent US20200384014A1, “Pulsed Administration Of Inhaled Nitric Oxide For The Treatment Of Pulmonary Hypertension” (Bellerophon Pulse Technologies LLC, priority 2017, published 2020):

Tested on: systolic pulmonary arterial pressure (sPAP) in subjects with PH-COPD
Assay: Phase 2 placebo-controlled clinical study of pulsed iNO in subjects with PH-COPD on LTOT (IK-7002-COPD-201; NCT01728220)
Assay type: in vivo, human
Set-up: Average Change in sPAP vs Baseline: unit not given beside the values
Settings: for Average Change in sPAP vs Baseline: PH-COPD subjects on LTOT, echocardiography
From the text: This study was a Phase 2, placebo-controlled, double-blind, randomized, two-part, dose-confirming clinical study characterizing the pharmacodynamic effects of pulsed iNO versus placebo in subjects with PH-COPD on LTOT (IK-7002-COPD-201; NCT01728220). The primary outcome of this study was change in systolic pulmonary arterial pressure (sPAP) from baseline after treatment with iNO (measured by 2D transthoracic echocardiography with Doppler). The secondary outcome was the occurrence of a decrease ≥5 mm Hg of partial pressure of oxygen in arterial blood (PaO2) from baseline after treatment with iNO.
Subjects also had tricuspid regurgitation velocity (TRV)≥2.9 m/s as measured by echocardiogram, a post-bronchodilatory forced expiratory volume in 1 second/forced vital capacity (FEV1/FVC)<0.7 and a FEV1<60% predicted. All subjects were at least 40 years old and were former smokers with at least 10 pack-years of tobacco cigarette smoking before study entry. All subjects also had been receiving LTOT for at least 3 months for at least 10 hours per day.
PH-COPD subjects were administered pulsed iNO at a dose of 3, 10, 15, 30 or 75 mcg/IBW kg/hr for at least 20 minutes, or received pulsed placebo (99.999% N2) for at least 20 minutes. The doses of 3 and 10 mcg/kg IBW/hr were administered from a mini-cylinder having 2,440 ppm NO and the doses of 15, 30 and 75 mcg/kg IBW/hr were administered from a mini-cylinder having 4,880 ppm NO.
The NO delivery device delivered gas comprising NO in a pulsatile manner at the beginning of the patient's breath. The minimum pulse volume is limited and for lower doses, can require 1 or more breaths to be skipped to maintain a constant dose in mcg/kg IBW/hr.

[N]=O [iNO, nitric oxide]
Average Change in sPAP vs Baseline (pulsed iNO 10 mcg/kg IBW/hr for at least 20 minutes, N=21): −4.4 | Average Change in sPAP vs Baseline (pulsed iNO 15 mcg/kg IBW/hr for at least 20 minutes, N=21): −2.4 | Average Change in sPAP vs Baseline (pulsed iNO 30 mcg/kg IBW/hr for at least 20 minutes, N=24): −4.5 | Average Change in sPAP vs Baseline (pulsed iNO 75 mcg/kg IBW/hr for at least 20 minutes, N=24): −4.3 | Efficacy (decrease in sPAP), in words (pulsed iNO 3 mcg/kg IBW/hr): ineffective | Efficacy (decrease in sPAP), in words (pulsed iNO 10 mcg/kg IBW/hr): showed efficacy | Efficacy (decrease in sPAP), in words (pulsed iNO 15 mcg/kg IBW/hr): did not show efficacy | Efficacy (decrease in sPAP), in words (pulsed iNO 30 mcg/kg IBW/hr): showed efficacy | Efficacy (decrease in sPAP), in words (pulsed iNO 75 mcg/kg IBW/hr): showed efficacy
